In patent publication US20080108894A1, “Methods and Systems of Analyzing Clinical Parameters and Methods of Producing Visual Images” (priority 2004, published 2008):
“Also recorded” adds a separate entry of the source.

How the values were obtained:
[1] = tested on: infarcted myocardium; test: R1 mapping with SI0 map 20 minutes after Gd(DTPA) in dogs 48 h after reperfusion of myocardial infarction; assay type: in vivo, dog
Experimental: In three dogs (n=3), weighing 18-20 kg, myocardial infarctions (MI) were generated by a 180-minute closed-chest coronary artery occlusion. Forty-eight hours following reperfusion, baseline R10 map and SI0-map (see below) were generated using the inversion-recovery (IR) technique with multiple inversion times (TI) (FIG. 6). Delayed-Enhancement (DE) imaging was carried out exactly 15 minutes after Gd(DTPA) (0.2 mmol/kg) administration. Baseline parametric R10 maps, and corresponding SI0 maps, that cover the left ventricle (LV), in a dog 48 h after myocardial infarction, are shown in FIG. 6. R1 was calculated from the SI vs. TI dependence as detailed herein. The calculated baseline relaxation rate of myocardium was R10=1.03±0.05 s^−1, which was later used for calculating the PIM. For the purpose of generating PIMs, 20 minutes after the administration of Gd(DTPA), high resolution images of the entire heart were acquired with two TIs using the same image localizations and sequence parameters (except the TI) as for the baseline R10 and SI0 maps. Details of selecting the optimum TIs are discussed further below. From these images and from the corresponding SI0 maps, voxel-by-voxel R1 maps were generated. Average R1 values in remote myocardium and infarct core were R1=1.73±0.07 s^−1, and R1=3.22±0.09 s^−1, respectively. R1 in LV chamber blood was R1=2.53±0.05 s^−1. ΔR1 (ΔR1=R1−R10) was calculated automatically for each voxel utilizing the baseline R10 map. Average ΔR1r in the remote viable regions was 0.7±0.07 s^−1, while in the center of the infarct (denoted 100% infarcted) ΔR1c was 2.19±0.09 s^−1. The contribution of any contrast-agent-accumulating infarct islet contributes to the total ΔR1 of that voxel. Therefore, ΔR1 is proportional to the amount of non-viable tissue present in any given voxel. Thus, a percent infarct (PI) scale was created, where the core ΔR1c (maximum R1 enhancement observed in the center of the infarct) was considered 100% whereas the ΔR1r of remote areas was 0%. In the canine model used in the present disclosure, the myocardial infarct was generated by prolonged proximal occlusion of the Left Anterior Descending coronary artery, using an intracoronary balloon catheter. Animals were anesthetized and mechanically ventilated during MRI sessions (using isoflurane). A 1.5 Tesla GE Signa Horizon “Cardiac CV” instrument was used for cardiac MRI. Images were generated in standard consecutive short-axis planes (6 slices covering the entire LV) and one additional three-chamber long-axis view to assess the apex (left ventricular outflow tract view).

[2] = tested on: infarcted myocardium; test: R1 mapping (inversion recovery MRI) 24 h and 48 h after PCA in canine reperfused myocardial infarction; assay type: in vivo, dog; settings: for Average R1r (R1 in remote regions) / Average ΔR1r (ΔR1 in remote regions): remote myocardium
Description: In FIG. 2, multislice voxel-by-voxel R1 maps (A) and PIMs (B), generated from such images, are shown. The good quality and coregistration of images acquired with varying TI, was confirmed by the R^2 values obtained for the pixel-by-pixel curve-fitting applied to the SI vs. TI dependence. Average R^2 in the myocardium was 0.99±0.005.
Average R10 was 0.98±0.05 s^−1, in agreement with other investigators' findings. […] This proves Gd(ABE-DTTA) to be a PCA suitable for multi-T1 R1 mapping.
In the canine model used in the present disclosure, the myocardial infarct was generated by prolonged proximal occlusion of the Left Anterior Descending coronary artery, using an intracoronary balloon catheter. Animals were anesthetized and mechanically ventilated during MRI sessions (using isoflurane).
A 1.5 Tesla GE Signa Horizon “Cardiac CV” instrument was used for cardiac MRI. Images were generated in standard consecutive short-axis planes (6 slices covering the entire LV) and one additional three-chamber long-axis view to assess the apex (left ventricular outflow tract view).
A 180°-prepared, segmented, fast gradient-echo sequence, was used to determine R1 values of the myocardium using the inversion recovery method. Short axis and long axis images were generated using the following parameters: FOV 300 mm, image matrix 256×256, slice thickness 10 mm, read out flip angle 25°, echo time (TE) 3.32 ms, repetition time (TRp) 7.18 ms, and recycle time (TR) 1200-2000 ms (three R-R intervals, depending on heart rate, but constant throughout an entire given R1 mapping procedure). Inversion times (TI) in the range of 200-1200 ms were used. In theory, 6 different TIs should be sufficient to generate a R1 map. In this disclosure, however, 8-10 TIs were used to ensure accuracy of R1 determination. The R1 values were calculated from the SI vs. TI dependence, applying a three-parameter least-squares curve fitting routine, using the following formula: […]
Since all MRI parameters below reflect the entire volume element in the slice, associated with a given pixel, from this point on the term voxel, rather than pixel, will be used.). The relaxation rate R1 (R1≡1/T1) of each voxel was composed of R10, the myocardial R1 observed in the absence of both infarct and PCA, and ΔR1, the contribution of the PCA present in the voxel:
Using Eq. 2, the R1 map was transformed into a ΔR1 map. The average ΔR1r value of areas remote from the infarct zone (about 600 voxels), was considered representative of 0% infarction.
As a threshold, ΔR1v of all remote voxels where R1v<R1r+2SD, was set to zero.

[3] = 20 minutes after Gd(DTPA) 0.2 mmol/kg
[4] = 20 minutes after Gd(DTPA), ΔR1=R1−R10

Row | hourly change in R1 in all myocardial areas ([2]; between 24 and 48 hours post PCA) | rate of decay in the infarct ([2]; within the acquisition time frame of about 30-40 minutes) | Molecule | Average R1 in infarct core [1, 3] | Average R1 in remote myocardium [1, 3] | R1 in LV chamber blood [1, 3] | Average ΔR1r in the remote viable regions [1, 4] | ΔR1c in the center of the infarct (denoted 100% infarcted) [1, 4] | Average R1c (R1 in infarct core) ([2]; 24 h after PCA) | Average ΔR1c (ΔR1 in infarct core) ([2]; 24 h after PCA) | Average R1r (R1 in remote regions) ([2]; 24 h after PCA) | Average ΔR1r (ΔR1 in remote regions) ([2]; 24 h after PCA) | Average R1c (R1 in infarct core) ([2]; 48 h after PCA) | Average ΔR1c (ΔR1 in infarct core) ([2]; 48 h after PCA) | Average R1r (R1 in remote regions) ([2]; 48 h after PCA) | Average ΔR1r (ΔR1 in remote regions) ([2]; 48 h after PCA) | persistence of ΔR1 / agent in the infarct ([2]; infarct region, after a single administration) | hourly change in R1 ([2]; viable tissue, between 24 and 48 hours post PCA, interpolated)
1 |  |  | O=C([O-])CN(CCN(CC(=O)[O-])CC(=O)O)CCN(CC(=O)[O-])CC(=O)O.[Gd+3] [Gd(DTPA)] | 3.22 ± 0.09 s⁻¹ | 1.73 ± 0.07 s⁻¹ | 2.53 ± 0.05 s⁻¹ | 0.7 ± 0.07 s⁻¹ | 2.19 ± 0.09 s⁻¹ |  |  |  |  |  |  |  |  |  | 
2 | less than one percent of the measured R1 | less than 1 % of R1 | Gd(ABE-DTTA) |  |  |  |  |  | 2.33 ± 0.5 s⁻¹ | 1.21 ± 0.5 s⁻¹ | 1.23 ± 0.06 s⁻¹ | 0.26 ± 0.03 s⁻¹ | 2.31 ± 0.4 s⁻¹ | 1.27 ± 0.3 s⁻¹ | 1.15 ± 0.08 s⁻¹ | 0.18 ± 0.05 s⁻¹ | observable throughout the first week from administration; also recorded: still observable in the infarct region one week after administration | 0.26±0.1 percent/hour
